Among the data in patent publication US20230115350A1 (Cedilla Therapeutics, Inc., priority 2021, published 2023) are GI50 and IC50 values, retold here.

By GI50 is commonly meant the concentration at which growth is held to half of that of the control. The term pIC50 denotes −log10 of the IC50, conventionally taken in molar units.

pIC50: −log10 of the molar value.

TEAD1 protein (YAP Binding Domain), sequence (P28347 209-426 limits assumed): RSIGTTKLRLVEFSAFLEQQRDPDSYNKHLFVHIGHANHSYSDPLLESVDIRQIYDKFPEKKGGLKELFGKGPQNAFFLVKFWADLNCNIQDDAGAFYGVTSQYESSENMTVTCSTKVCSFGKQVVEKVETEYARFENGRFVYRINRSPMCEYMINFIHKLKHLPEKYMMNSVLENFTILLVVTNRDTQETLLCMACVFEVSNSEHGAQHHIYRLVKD

One assay has as its system NCI-H226. The assay can be described thus: 72H TEAD Proliferation Assay (Cell Titer-Glo 2.0). The format is cell-based. The settings on record: Homo sapiens, NCI-H226, 72 h, CTG 2.0, cell line not given. Here is the method:
The effect of TEAD inhibition on cell proliferation was assayed using Cell Titer Glo (CTG) 2.0 to measure response in mesothelioma cell lines NCI-H226 (ATCC, #CRL-5826) and NCI-H28 (ATCC, #CRL-5820).
The 72H TEAD Proliferation assay utilizes Cell Titer-Glo 2.0 (Promega, #G9243) to measure the proliferation of cells in the presence or absence of compound. Cell Titer-Glo 2.0 determines the amount of viable cells by quantifying ATP (an indication of metabolically active cells). It utilizes the conversion of Luciferin to Oxyluciferin and a luminescent signal with the use of ATP to report the quantity of viable cells in culture. Within cells that are continually growing, ATP is being synthesized to meet their metabolic demands, meanwhile the opposite is true for cells that are dying or slowing down their proliferation and either no longer using ATP or are using less, respectively. The NF2-deficient NCI-H226 has been genetically validated as a cell line that is sensitive to TEAD inhibition. The NF2-wild type NCI-H28 has been genetically validated as a cell line that is not sensitive to TEAD inhibition and grows independently of TEAD activity.
Compounds were screened against the responsive NCI-H226 cell line to assess the compounds' ability to inhibit TEAD and cell growth. Compounds were also screened against the non-responsive NCI-H28 cell line to ascertain whether the inhibition of cell growth was due to inhibition of the target TEAD or whether the inhibition was due to off-target cytotoxicity.
1) Assay ready plates (ARPs) were prepared by Echo acoustic liquid handler. For each compound, duplicate of 10-point half-log dilution series were dispensed in a 384-well microplate (Corning 3571).
5) NCI-H226 or NCI-H28 cells were harvested from culture in Assay Medium 1 and the multidrop Combi reagent dispenser was used to seed cells at 500 cells per 50 ul in each well of the ARPs and one Corning 3571 plate without compounds for Time 0 (TO) readout.
6) The TO plate was incubated for 2 hours at 37° C. with 5% CO2 to allow cells to settle, then the CTG Assay was performed.
7) All ARPs were incubated for 72 hours at 37° C. with 5% CO2, then the CTG Assay was performed for Time 72H (T72) readout.
8) CTG Assay: Bravo liquid handler (Agilent) was used to add 25 ul of CTG 2.0 to all columns of the plate except for Column 24, which was used to subtract out the background. After CTG addition, plates were placed on shaker at 800 RPM for 15 minutes at room temperature and kept in the dark. Luminescence was measured using EnVision multilabel plate reader with ultra-sensitive detection module.
9) Data Analysis: First background luminescence (no CTG wells) was subtracted from luminescence reading of all wells, then TO luminescence was subtracted from T72 luminescence. To compare anti-proliferative effect of compounds, GI50 was obtained by fitting dose response curves with nonlinear regression curve fit.
With `C=CC(=O)Nc1ccc2c(c1)OC(C)(c1cccc(C(F)(F)F)c1)O2` (stereo not drawn) [147*, N-(2-methyl-2-(3-(trifluoromethyl)phenyl)benzo[d][1,3]dioxol-5-yl)acrylamide], the GI50 fell in the range of 250 to 1000 nM.
The same measure, in the same setting: for `C=CC(=O)Nc1ccc(CCc2cccc(F)c2)c(F)c1` [Compound 1, N-(3-fluoro-4-(3-fluorophenethyl)phenyl)acrylamide] the value was 1000 to 3000 nM; for `C=CC(=O)Nc1ccc(OCc2cccc(F)c2)c(C2CCCCC2)c1` [Compound 3, N-(3-cyclohexyl-4-((3-fluorobenzyl)oxy)phenyl)acrylamide], above 3000 nM.
Same read-out and setting: then `C=CC(=O)Nc1ccc(OCc2cccc(F)c2)c(C(F)(F)F)c1` [Compound 9, N-(4-((3-fluorobenzyl)oxy)-3-(trifluoromethyl)phenyl)acrylamide], with above 3000 nM.
`C=CC(=O)Nc1ccc(OCC2CCC(F)(F)CC2)c2ccncc12` [Compound 19, N-(5-((4,4-difluorocyclohexyl)methoxy)isoquinolin-8-yl)acrylamide] registered a GI50 above 3000 nM.
The same measure, in the same setting: then `C=CC(=O)Nc1ccc(OCC2CCC(F)(F)CC2)cc1C#N` [Compound 20, N-(2-cyano-4-((4,4-difluorocyclohexyl)methoxy)phenyl)acrylamide], with 250 to 1000 nM; and `C=CC(=O)Nc1ccc(OCc2cccc(F)c2)cc1F` [Compound 45, N-(2-fluoro-4-((3-fluorobenzyl)oxy)phenyl)acrylamide], with above 3000 nM.
Turning to `C=CC(=O)Nc1cc2nc(CCCC(F)(F)F)oc2cc1F` [Compound 133, N-(6-fluoro-2-(4,4,4-trifluorobutyl)benzo[d]oxazol-5-yl)acrylamide], the GI50 was at most 250 nM.

The target in another assay is TEAD1 protein (YAP Binding Domain) (Homo sapiens, UniProt P28347). The assay can be described thus: TEAD1 lipid pocket compound displacement assay (TR-FRET, Cy5-probe). The conditions noted are these: 60 minutes incubation at room temperature; TR-FRET 665 nm/620 nm; read-out: CDA IC50. Here is the method:
Compound Displacement Assay.
A TEAD1 lipid pocket displacement assay was carried out according to the following protocol. Purified His-tagged TEAD1 protein (YAP Binding Domain) was pre-mixed with a Cy5-probe (Cy5-conjugated to a small molecule that binds in the TEAD1 lipid pocket) and Terbium-labeled anti-His antibody (Cisbio Cat 61HI2TLB). The binding of the Cy5-probe to anti-His-Tb/His-tag TEAD1 complex yielded a TR-FRET signal. […] After 60 minutes incubation at room temperature of compounds with the His-TEAD1/anti-His-Tb/Cy5-probe complex, the plate was read on a plate reader (BMG ClarioStar Cat 430-1300) using TR-FRET mode with wavelengths of 665 nm/620 nm. The potency of compounds as TEAD1 lipid pocket binders was determined by IC50 value generated using a non-linear 4 parameter curve fit.
(TR-FRET usually uses a lanthanide donor and a delayed reading to cut background.)
Consider `C=CC(=O)Nc1ccc2c(c1)OC(C)(c1cccc(C(F)(F)F)c1)O2` (stereo not drawn) [147*, N-(2-methyl-2-(3-(trifluoromethyl)phenyl)benzo[d][1,3]dioxol-5-yl)acrylamide], for which the pIC50 is at least 6.60.
In the case of `C=CC(=O)Nc1ccc(CCc2cccc(F)c2)c(F)c1` [Compound 1, N-(3-fluoro-4-(3-fluorophenethyl)phenyl)acrylamide], the negative-log IC50 (pIC50) is at least 6.60.
Still for that read-out and setting: then `C=CC(=O)Nc1ccc(OCc2cccc(F)c2)c(C2CCCCC2)c1` [Compound 3, N-(3-cyclohexyl-4-((3-fluorobenzyl)oxy)phenyl)acrylamide], with 5.70 to 6.30; and `C=CC(=O)Nc1ccc(OCc2cccc(F)c2)c(C(F)(F)F)c1` [Compound 9, N-(4-((3-fluorobenzyl)oxy)-3-(trifluoromethyl)phenyl)acrylamide], with at least 6.60; and `C=CC(=O)Nc1ccc(OCC2CCC(F)(F)CC2)c2ccncc12` [Compound 19, N-(5-((4,4-difluorocyclohexyl)methoxy)isoquinolin-8-yl)acrylamide], with below 5.70.
Consider `C=CC(=O)Nc1ccc(OCC2CCC(F)(F)CC2)cc1C#N` [Compound 20, N-(2-cyano-4-((4,4-difluorocyclohexyl)methoxy)phenyl)acrylamide], for which the negative-log IC50 (pIC50) was at least 6.60.
Regarding `C=CC(=O)Nc1ccc(OCc2ccncc2)c(F)c1` [Compound 66], the pIC50 is below 5.70.
Regarding `C=CC(=O)Nc1ccc(OCc2ccnc(C#N)c2)c(F)c1` [Compound 67, N-(4-((2-cyanopyridin-4-yl)methoxy)-3-fluorophenyl)acrylamide], the pIC50 is below 5.70.
On to `C=CC(=O)Nc1ccc(OCc2ccc(Br)nc2)c(F)c1` [Compound 68, N-(4-((6-bromopyridin-3-yl)methoxy)-3-fluorophenyl)acrylamide], for which the pIC50 was 5.70 to 6.30.
In the case of `C=CC(=O)Nc1ccc(OCc2ccc(C)nc2)c(F)c1` [Compound 69, N-(3-fluoro-4-((6-methylpyridin-3-yl)methoxy)phenyl)acrylamide], the pIC50 is below 5.70.
On to `C=CC(=O)Nc1ccc(OCc2ccc(C(=O)OC)nc2)c(F)c1` [Compound 70, methyl 5-((4-acrylamido-2-fluorophenoxy)methyl)picolinate], for which the pIC50 is below 5.70.
For the molecule `C=CC(=O)Nc1ccc(OCc2cccnc2C)c(F)c1` [Compound 75, N-(3-fluoro-4-((2-methylpyridin-3-yl)methoxy)phenyl)acrylamide], the pIC50 was below 5.70.
Still for that read-out and setting: for `C=CC(=O)Nc1ccc(OCc2ccc(C#N)cc2Cl)c(F)c1` [Compound 77, N-(4-((2-chloro-4-cyanobenzyl)oxy)-3-fluorophenyl)acrylamide] the value was below 5.70; for `C=CC(=O)Nc1ccc(OCc2cc(Cl)ccc2Cl)c(F)c1` [Compound 79, N-(4-((2,5-dichlorobenzyl)oxy)-3-fluorophenyl)acrylamide], 5.70 to 6.30.
On to `C=CC(=O)Nc1ccc(OCc2ccc(C(F)(F)F)cc2Cl)c(F)c1` [Compound 81, N-(4-((2-chloro-4-(trifluoromethyl)benzyl)oxy)-3-fluorophenyl)acrylamide], for which the pIC50 is below 5.70.
Take `C=CC(=O)Nc1ccc(OCc2c(F)cccc2Cl)c(F)c1` [Compound 85, N-(4-((2-chloro-6-fluorobenzyl)oxy)-3-fluorophenyl)acrylamide]: the pIC50 was below 5.70.
On the same count and under the same terms, for `C=CC(=O)Nc1ccc(OCc2c(Cl)cccc2Cl)c(F)c1` [Compound 86, N-(4-((2,6-dichlorobenzyl)oxy)-3-fluorophenyl)acrylamide] the value was below 5.70; for `C=CC(=O)Nc1ccc(OCc2cc(C(=O)OC)ccc2Cl)c(F)c1` [Compound 87, methyl 3-((4-acrylamido-2-fluorophenoxy)methyl)-4-chlorobenzoate], 5.70 to 6.30; for `C=CC(=O)Nc1ccc(OCc2cc(OC)ccc2Cl)c(F)c1` [Compound 88, N-(4-((2-chloro-5-methoxybenzyl)oxy)-3-fluorophenyl)acrylamide], 6.30 to 6.60.
Still for that read-out and setting: for `C=CC(=O)Nc1ccc(OCc2cccc(Cl)c2)c(F)c1` [Compound 90, N-(4-((3-chlorobenzyl)oxy)-3-fluorophenyl)acrylamide] the value was at least 6.60; for `C=CC(=O)Nc1ccc(OCc2cccc(C#N)c2)c(F)c1` [Compound 92, N-(4-((3-cyanobenzyl)oxy)-3-fluorophenyl)acrylamide], 5.70 to 6.30.
`C=CC(=O)Nc1ccc(OCc2cccc(C)c2)c(F)c1` [Compound 93, N-(3-fluoro-4-((3-methylbenzyl)oxy)phenyl)acrylamide]: the pIC50 was at least 6.60.
On to `C=CC(=O)Nc1ccc(OCCCC(F)(F)F)c(F)c1` [Compound 94, N-(3-fluoro-4-(4,4,4-trifluorobutoxy)phenyl)acrylamide], for which the pIC50 was 5.70 to 6.30.
As to `C=CC(=O)Nc1ccc(OCc2cccc(F)c2F)c(F)c1` [Compound 95, N-(4-((2,3-difluorobenzyl)oxy)-3-fluorophenyl)acrylamide], the pIC50 was 6.30 to 6.60.
Still for that read-out and setting: for `C=CC(=O)Nc1ccc(OCc2cc(F)cc(F)c2)c(F)c1` [Compound 97, N-(4-((3,5-difluorobenzyl)oxy)-3-fluorophenyl)acrylamide] the value was 6.30 to 6.60; for `C=CC(=O)Nc1ccc(Oc2ccc(C3CCCCC3)cc2)c(F)c1` [Compound 102, N-(4-(4-cyclohexylphenoxy)-3-fluorophenyl)acrylamide], at least 6.60.
The same measure, in the same setting: then `C=CC(=O)Nc1ccc(C(=O)Nc2cccc(F)c2)c(F)c1` [Compound 118, 4-acrylamido-2-fluoro-N-(3-fluorophenyl)benzamide], with below 5.70.
For the molecule `C=CC(=O)Nc1ccc(C2CCc3ccccc3C2)c(F)c1` (stereo not drawn) [Compound 119, N-(3-fluoro-4-(1,2,3,4-tetrahydronaphthalen-2-yl)phenyl)acrylamide], the pIC50 was 5.70 to 6.30.
As for `C=CC(=O)Nc1ccc(OC(C)c2ccccc2Cl)c(F)c1` (stereo not drawn) [Compound 123, N-(4-(1-(2-chlorophenyl)ethoxy)-3-fluorophenyl)acrylamide], the negative logarithm of the IC50 (pIC50) was 5.70 to 6.30.
On the same count and under the same terms, then `C=CC(=O)Nc1ccc(OCc2cccc(F)c2)c(F)n1` [Compound 127, N-(6-fluoro-5-((3-fluorobenzyl)oxy)pyridin-2-yl)acrylamide], with at least 6.60; and `C=CC(=O)Nc1cc(F)c(OCc2cccc(F)c2)cn1` [Compound 128, N-(4-fluoro-5-((3-fluorobenzyl)oxy)pyridin-2-yl)acrylamide], with at least 6.60.
The same measure, in the same setting: for `C=CC(=O)Nc1ccc(OCc2cccc(F)c2)c(C#N)c1` [Compound 130, N-(3-cyano-4-((3-fluorobenzyl)oxy)phenyl)acrylamide] the value was 5.70 to 6.30; for `C=CC(=O)Nc1ccc(C2COc3ccccc3C2=O)c(F)c1` (stereo not drawn) [Compound 131, N-(3-fluoro-4-(4-oxochroman-3-yl)phenyl)acrylamide], 5.70 to 6.30.
On to `C=CC(=O)Nc1cc2nc(CCc3cccc(F)c3)oc2cc1F` [Compound 139, N-(6-fluoro-2-(3-fluorophenethyl)benzo[d]oxazol-5-yl)acrylamide], for which the negative-log IC50 (pIC50) was 6.30 to 6.60.
